The text below walks through data of patent US10155985B2, “Evaluation of eosinophilic esophagitis” (CHILDREN'S HOSPITAL MEDICAL CENTER, priority 2004, dated 2018).

The subject of data set [1] is esophageal epithelial cells. Put plainly: Transcriptome of esophageal epithelial cells stimulated with IL-13, compared to the EE transcriptome. The data set is classed as cell-based. An excerpt: In one embodiment, the EE transcriptome was compared to transcriptomes in cell/tissues that had been treated with one or more compounds potentially involved with and/or efficacious against EE. By comparing the EE transcriptome to the transcriptome of, e.g., a simple in vitro or ex vivo model of a particular compound, one can assess the percentage of genes that are dysregulated in EE due to that particular compound.
For example, in ex vivo or in vitro models, a compound was used to stimulate an esophageal cell type.

Data set [2] deals with EE transcriptome. Put plainly: EE transcriptome of EE patients after fluticasone propionate treatment. The data set is classed as in vivo, human. To be noted: EE patients treated; FIG. 6. The method, then: The data were analyzed by cluster analysis and ordered (standard correlation (A) and distance (B)) using Genespring software. […] Each column represented a separate individual and each line a gene. RNA from each patient was subjected to chip analysis using Affymetrix Human Genome U133 GeneChip plus 2.
In one embodiment, the EE transcriptome was used to evaluate EE patients pre- and post-treatment regimens.
This group of 13 non-responsive genes is SEQ ID NOS. 6, 35, 43, 61, 129, 1358, 1441, 1515, 1538, 1584, 1615, 1618, and 1620. Evaluation of these genes provides a marker of past, present, and/or future active disease, especially in the absence of overt disease. […] Thus, these 13 genes can be used to evaluate a patients propensity to EE, particularly in the absence of clinical or physical symptoms of EE or microscopic findings typical of EE. […] These 13 genes can be used to evaluate EE in an asymptomatic population or when past EE is suspected in a non-active EE individual at the time of endoscopy.

The next data set has as its system eosinophilic esophagitis. Particulars: cited from earlier work.
In data set [3] the test system is EE transcriptome. Put plainly: Genome-wide microarray transcript profiling of esophageal biopsies, EE patients vs normal individuals (EE transcriptome). To be noted: transcript level in esophageal biopsies of EE patients (n=76) compared to normal individuals (n=13); Affymetrix Human Genome U133 plus 2; p<0.01. The method in brief: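 Distal esophageal biopsies from EE patients (n=76; >24 eosinophils/hpf, basal hyperplasia) and normal controls (n=13; 0 eosinophils/hpf) profiled on Affymetrix Human Genome U133 plus 2 chips. Expression by absolute call and average difference, global scaling; transcriptome genes defined as p<0.01 (Welch t-test) and ≥1.5-fold change.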

Turning to interleukin 13 [IL-13], the “share of the genes of the EE transcriptome potentially due to stimulation of esophageal epithelial cells” value in data set [1] is given as 20%. Regarding `CCC(=O)O[C@]1(C(=O)SCF)[C@H](C)C[C@H]2[C@@H]3C[C@H](F)C4=CC(=O)C=C[C@]4(C)[C@@]3(F)[C@@H](O)C[C@@]21C` [fluticasone propionate], in the data set with EE transcriptome [2], the “number of EE transcriptome genes normalized by treatment” value is listed as 1605 genes/1620 genes, the “number of EE transcriptome genes resistant to treatment” value is on record as 13 genes/1620 genes and the “share of the EE transcriptome resistant to treatment” value is “less than 1%”. Besides, the “effect on EE disease” value in the data set on eosinophilic esophagitis (Gastroenterology 131 (2006) 1381) is “induce EE disease remission”. Moreover, the “effect on EE gene dysregulation” value in the data set on eosinophilic esophagitis (J. Allergy Clin. Immunol. 120 (2007) 1292, U.S. Ser. No. 61/118,981) is reported as “reverse EE gene dysregulation”.

B1: SEQ_ID_#43 (nucleic acid, listed as Homo sapiens)
DNA: TTCACTTTTTCATTATTTTATTGTTGTTTTAGTAGCATTTTGAGGTGAATGTATGCATAATCAGTGAATTAGACAAGCATGCACATACATGATATCTGATCAAACATTTTTTTGTCTCTCATCATCCTCATAAAATTTATTCAGTGGGAGAAGCTTTTTCTTCCATCAGATACATTCCAGTTGTATGCCAACATACTCAGGTAAGAGCAACATTTTGGTCATTTTAAATAGTTTGGTAATTATGACTCCCAGTCGCCTACAATAAGAAGAAACTACAATAATTTAGTACTAAATTTTTCTTCCCTCTCCAACTGAGTCTTGTGTTGAGTTGCCTACTTGCGCTAGCACATCTTCCCTTGCTGGTTGACATTTTTGCTAAGATTTCTCCCTCTCCTTCCACCCCACCTTGGACACGGAGGTTTCTGGCCTCCCTTTCCCCAAGGTCCCCAAAAAAAGAAATCTGTCTTATGAGATAGGGCTGCCTTCACATGGTGTCAGGGTTCTCTGGATAGTAATTGTGTGTAATAAGAGAGGGAGCATTCAAGAACTCCCATAGAAATTCTCATAGCCCTGACTTCTCATCTTTAGCTTGTGTAGATTTTTTTGTATTCCAGGTGGTCATTTGTGACTCCTTCCTCATCCCACAATCTGGCTTCACCTCCCACTTCTTGATGCTGGGTTCCCTCCACCTCTTTGGACAACCTATCAGAGAGGACCTAAAGAGCCCATGCTGACTTCACTCTTGCATGTCTCACTATGGTTCATGGGAAACCACACATCCATTGCCCTGACAACACTAGACATACAGGC
Consider B1, for which the “Fold Change” value with EE transcriptome [3] came out at 5.944.

B2: SEQ_ID_#186 (nucleic acid, listed as Homo sapiens)
DNA: CACCGGCTACAAGGCTAGACCGGGGGCTCGCATATCTCCACTTGCAGCTGCCACTGCCATTAGAAGAACTTGCTCAGCCAGCTCCTGGGCCCCAGGAAAAGGACAAGTGTCACCCAGAACAGAGCCACCTCCAGCTGCACTCAGCTCCAGAAGCTGGCCCAGCCGGTCCAGTACACCTTTTAAATAATGTCCTCTACGTGCCGGTGTGGAAGTAGCCCGGATGCAATTGAATGAACAACAGACGGTGCTTTCCAGGACGGCGCTGTGCTTTCCAGGATGGTGCTGTGCTTTCATTCATTTGGGTAGCTCCTCTGTGAGCCTCCCAGCGCCGACTGCAGAGCCCCCACTCTCCAGCCTGCAAGACCCCGAAATTCAAGCCACACAAAGAAAGGAGGAGGGGGCCGTGGCATTTACTGAACCTTATAAAACTGTCAGCAAAACAGCCCTTAGGCTTGGACTCCCTGCTAGCCGGGTTTTACGGTGCTGAAGTCAGCATCTTGATTCAGCTGCATAAATAATCTCCTGCAGTCCTGCAAGGCCTGGGGTAGGAGAGGGTATGGGGACCAGGGCACTCTGTAAGGGCTGGATAGGAACCCCAGGGAATAAGACAGACCAATGCGGGACTTCAGACTCCACTGCAGCGGGATCGGG
For the molecule B2, the “Fold Change” value in the data set with EE transcriptome [3] was 2.617.

B3: SEQ_ID_#243 (nucleic acid, listed as Homo sapiens)
DNA: GGAAAGAGAGGAGAGGGGAGGGGAAGAGAGGGGAGGGAAGGGCAGGGCAGGGCAGAGCCCGGCAGGCAGCCCTCAGAGGAGGGGCGCAGGCCCCAGCCCAAGGCCTCCCGCGCCTGCCCAGGTCCCGGCCTCCATCGTCCAGGGCTCTGGGGCTCCCAGGGGAGACACCCACGCTCGGCCAAGCCCAGGGTTCCAGAAGCCCAGGGGTGGCGGCAGCCGGGCTCAGCCTATGGCCAGGCTCGCATTCAGACATGCGCCAGCCTCGGTCGGCTCTCTCCGGGAGACACTAAGATCTCCTCACTGACTTTGGTGTTCCTTGGTCTCACCAGCGCGTCCTAGCTGTGCCGAGCTCACACCCACCCTGTTTGGTGTAAGCCACAGGTCCACAACGTTCATCAGCTCTGGAAATCCCTCAACAATTGTGTCCAGTTTCACCACGAATTCCTTCTCCATATCCTCACCATTTTCTTTTACCCCCTCATCAAATTACTCCCTTCCGTCTAATCTGCTGATTAACTCATTCATTTTATCTTAAATTATTATG
Regarding B3, the “Fold Change” value with EE transcriptome [3] worked out at 2.308.

B4: SEQ_ID_#52 (nucleic acid, listed as Homo sapiens)
DNA: TTTTTTTCCAAGGGGAGAATGAAGCCATTTTATTTAGGGGAATGTTAAAACAAAGCCATATACAATCTGTAACAAATACAATACAATTGTTTGTTCCCTAGTCCTGAATAATTACAGTATATACAAAATCTGTAAGGCACTGGTTCCCCCAAAAGAACAAATGAGTCTTCTTGTGAAACAGACAACGAAACCCCTATATTGCCAACTTTTCTCCAAAAAATATGGCATTGTTTTTTTGTTTTGTTTTACAAGAGGAATCACAATTGCTAAATTAAGTCACTTCTGATGCCATTTCTTTCATTTCCACTGCTATGTGTCTGGGTTTTCTAAGGCAATGTAACTACTGAACATGTTCAAGTTTAAAAAACTATACTTCTCTCAGTGCCGTTCCACCCACAAACAAAGAAGAATCAGATCA
For B4, the “Fold Change” value in the data set on EE transcriptome [3] came to 5.183.

B5: SEQ_ID_#245 (nucleic acid, listed as Homo sapiens)
DNA: TTTTTTTTTTGTATTTTTTGCAGGGACAGGGTTTCACCATATTGCTCAGGGTAGTCTCGAACTCCTGAGCTCAAGGGATCCACCCTGCCTTGGCCTCCCAGTGTGCTGGGATTTCACACGTGAGCCACCGAGCCCAGCTACATTCTTATTTCCTAAACTTTACAAGTTCACACTCTTCCCTTTAAACAAATGTGCCCCCTCTGGCGGTGTCATTTGAGTCCCGGTGTATGTCATTAAGCCTCTTAACCTCAACCACTACTTCCCACTGAAATAACTCTATTTTCTTTTTTTCTAATGAAAAAGTAAGACATGTTCTATGTAAAAATTAAAATATGGTGAGCACTTACCACTTACTATGAGCCAGGCATTGAACTAAGTATTTTTTAATCTTATTTTCATCCTCGTGATATGAGGTCAGTGCTTTGATGAGTTCCATTTTACGTAAGAAAGTAGTTAAG
For B5, the “Fold Change” value in the data set with EE transcriptome [3] worked out at 2.303.
